Source: the NIST ThermoML archive (doi:10.1021/acs.jced.8b00349)
± gives the expanded uncertainty stated by the source.

Test: mn = molality of the nth substance listed, in mol/kg
Details: 101 kPa, Liquid; for viscosity: Falling or rolling sphere viscometry; for speed of sound: Frequency=3 MHz, Single path-length method; for mass density: Vibrating tube method

C[n+]1ccn(CCCCCn2cc[n+](C)c2)c1.[Br-].[Br-] + O
Details	mass density [kg/m3]	speed of sound [m/s]	viscosity [mPa·s]
293.15 K, m1 = 0.03341	1002.35 ± 0.11	1488.3 ± 1	1.021 ± 0.021
293.15 K, m1 = 0.04614	1003.89 ± 0.11	1490.3 ± 1	1.027 ± 0.021
293.15 K, m1 = 0.05646	1005.11 ± 0.11	1491.6 ± 1	1.032 ± 0.021
293.15 K, m1 = 0.06717	1006.38 ± 0.11	1493.3 ± 1	1.037 ± 0.021
293.15 K, m1 = 0.0777	1007.58 ± 0.11	1494.8 ± 1	1.042 ± 0.021
293.15 K, m1 = 0.08857	1008.85 ± 0.11	1496.4 ± 1	1.047 ± 0.021
293.15 K, m1 = 0.09671	1009.75 ± 0.11	1497.3 ± 1	1.05 ± 0.021
298.15 K, m1 = 0.03341	1001.16 ± 0.11	1501.9 ± 1	0.908 ± 0.021
298.15 K, m1 = 0.04614	1002.7 ± 0.11	1503.7 ± 1	0.914 ± 0.021
298.15 K, m1 = 0.05646	1003.91 ± 0.11	1505 ± 1	0.918 ± 0.021
298.15 K, m1 = 0.06717	1005.17 ± 0.11	1506.5 ± 1	0.924 ± 0.021
298.15 K, m1 = 0.0777	1006.38 ± 0.11	1507.8 ± 1	0.928 ± 0.021
298.15 K, m1 = 0.08857	1007.62 ± 0.11	1509.2 ± 1	0.933 ± 0.021
298.15 K, m1 = 0.09671	1008.51 ± 0.11	1510.2 ± 1	0.936 ± 0.021
303.15 K, m1 = 0.03341	999.742 ± 0.11	1514.4 ± 1	0.815 ± 0.021
303.15 K, m1 = 0.04614	1001.27 ± 0.11	1515.9 ± 1	0.821 ± 0.021
303.15 K, m1 = 0.05646	1002.47 ± 0.11	1517.1 ± 1	0.825 ± 0.021
303.15 K, m1 = 0.06717	1003.73 ± 0.11	1518.5 ± 1	0.83 ± 0.021
303.15 K, m1 = 0.0777	1004.93 ± 0.11	1519.8 ± 1	0.835 ± 0.021
303.15 K, m1 = 0.08857	1006.16 ± 0.11	1520.9 ± 1	0.839 ± 0.021
303.15 K, m1 = 0.09671	1007.05 ± 0.11	1521.8 ± 1	0.843 ± 0.021
308.15 K, m1 = 0.03341	998.108 ± 0.11	1523.7 ± 1	0.737 ± 0.021
308.15 K, m1 = 0.04614	999.627 ± 0.11	1525.1 ± 1	0.741 ± 0.021
308.15 K, m1 = 0.05646	1000.83 ± 0.11	1526.4 ± 1	0.747 ± 0.021
308.15 K, m1 = 0.06717	1002.07 ± 0.11	1527.4 ± 1	0.752 ± 0.021
308.15 K, m1 = 0.0777	1003.27 ± 0.11	1528.7 ± 1	0.757 ± 0.021
308.15 K, m1 = 0.08857	1004.5 ± 0.11	1529.9 ± 1	0.762 ± 0.021
308.15 K, m1 = 0.09671	1005.38 ± 0.11	1530.7 ± 1	0.766 ± 0.021
313.15 K, m1 = 0.03341	996.275 ± 0.11	1533.2 ± 1	0.67 ± 0.021
313.15 K, m1 = 0.04614	997.783 ± 0.11	1534.3 ± 1	0.676 ± 0.021
313.15 K, m1 = 0.05646	998.981 ± 0.11	1535.4 ± 1	0.681 ± 0.021
313.15 K, m1 = 0.06717	1000.22 ± 0.11	1536.5 ± 1	0.685 ± 0.021
313.15 K, m1 = 0.0777	1001.41 ± 0.11	1537.5 ± 1	0.689 ± 0.021
313.15 K, m1 = 0.08857	1002.64 ± 0.11	1538.6 ± 1	0.694 ± 0.021
313.15 K, m1 = 0.09671	1003.53 ± 0.11	1539.4 ± 1	0.697 ± 0.021

C[n+]1ccn(CCCCn2cc[n+](C)c2)c1.[Br-].[Br-] + O
Details	mass density [kg/m3]	speed of sound [m/s]	viscosity [mPa·s]
293.15 K, m1 = 0.04944	1004.66 ± 0.11	1489.8 ± 1	1.026 ± 0.021
293.15 K, m1 = 0.06711	1006.89 ± 0.11	1492 ± 1	1.034 ± 0.021
293.15 K, m1 = 0.07912	1008.4 ± 0.11	1493.5 ± 1	1.039 ± 0.021
293.15 K, m1 = 0.0927	1010.06 ± 0.11	1495.1 ± 1	1.044 ± 0.021
293.15 K, m1 = 0.1021	1011.22 ± 0.11	1496.2 ± 1	1.049 ± 0.021
298.15 K, m1 = 0.04944	1003.45 ± 0.11	1503.2 ± 1	0.914 ± 0.021
298.15 K, m1 = 0.06711	1005.68 ± 0.11	1505.2 ± 1	0.921 ± 0.021
298.15 K, m1 = 0.07912	1007.18 ± 0.11	1506.6 ± 1	0.926 ± 0.021
298.15 K, m1 = 0.0927	1008.82 ± 0.11	1508 ± 1	0.931 ± 0.021
298.15 K, m1 = 0.1021	1009.97 ± 0.11	1509 ± 1	0.935 ± 0.021
303.15 K, m1 = 0.04944	1002.01 ± 0.11	1515.4 ± 1	0.821 ± 0.021
303.15 K, m1 = 0.06711	1004.22 ± 0.11	1517.1 ± 1	0.828 ± 0.021
303.15 K, m1 = 0.07912	1005.71 ± 0.11	1518.5 ± 1	0.833 ± 0.021
303.15 K, m1 = 0.0927	1007.35 ± 0.11	1519.8 ± 1	0.839 ± 0.021
303.15 K, m1 = 0.1021	1008.49 ± 0.11	1520.7 ± 1	0.842 ± 0.021
308.15 K, m1 = 0.04944	1000.35 ± 0.11	1524.7 ± 1	0.744 ± 0.021
308.15 K, m1 = 0.06711	1002.54 ± 0.11	1526.3 ± 1	0.751 ± 0.021
308.15 K, m1 = 0.07912	1004.03 ± 0.11	1527.3 ± 1	0.756 ± 0.021
308.15 K, m1 = 0.0927	1005.67 ± 0.11	1528.9 ± 1	0.762 ± 0.021
308.15 K, m1 = 0.1021	1006.8 ± 0.11	1529.5 ± 1	0.765 ± 0.021
313.15 K, m1 = 0.04944	998.497 ± 0.11	1534.1 ± 1	0.677 ± 0.021
313.15 K, m1 = 0.06711	1000.68 ± 0.11	1535.5 ± 1	0.683 ± 0.021
313.15 K, m1 = 0.07912	1002.15 ± 0.11	1536.5 ± 1	0.688 ± 0.021
313.15 K, m1 = 0.0927	1003.79 ± 0.11	1537.8 ± 1	0.692 ± 0.021
313.15 K, m1 = 0.1021	1004.91 ± 0.11	1538.5 ± 1	0.696 ± 0.021

C[n+]1ccn(CCCn2cc[n+](C)c2)c1.[Br-].[Br-] [1,3-bis[3-methylimidazolium-1-yl]propane dibromide] + O
Details	mass density [kg/m3]	speed of sound [m/s]	viscosity [mPa·s]
293.15 K, m1 = 0.03423	1002.81 ± 0.11	1486.3 ± 1	1.019 ± 0.021
293.15 K, m1 = 0.04998	1004.86 ± 0.11	1488.1 ± 1	1.025 ± 0.021
293.15 K, m1 = 0.06131	1006.3 ± 0.11	1489.3 ± 1	1.029 ± 0.021
293.15 K, m1 = 0.07119	1007.55 ± 0.11	1490.3 ± 1	1.033 ± 0.021
293.15 K, m1 = 0.08049	1008.72 ± 0.11	1491.3 ± 1	1.037 ± 0.021
293.15 K, m1 = 0.089	1009.76 ± 0.11	1492.2 ± 1	1.04 ± 0.021
293.15 K, m1 = 0.09492	1010.48 ± 0.11	1492.8 ± 1	1.042 ± 0.021
298.15 K, m1 = 0.03423	1001.61 ± 0.11	1499.9 ± 1	0.906 ± 0.021
298.15 K, m1 = 0.04998	1003.65 ± 0.11	1501.6 ± 1	0.912 ± 0.021
298.15 K, m1 = 0.06131	1005.1 ± 0.11	1502.6 ± 1	0.917 ± 0.021
298.15 K, m1 = 0.07119	1006.34 ± 0.11	1503.5 ± 1	0.921 ± 0.021
298.15 K, m1 = 0.08049	1007.49 ± 0.11	1504.6 ± 1	0.924 ± 0.021
298.15 K, m1 = 0.089	1008.53 ± 0.11	1505.4 ± 1	0.927 ± 0.021
298.15 K, m1 = 0.09492	1009.24 ± 0.11	1505.8 ± 1	0.929 ± 0.021
303.15 K, m1 = 0.03423	1000.19 ± 0.11	1512.3 ± 1	0.814 ± 0.021
303.15 K, m1 = 0.04998	1002.22 ± 0.11	1513.9 ± 1	0.82 ± 0.021
303.15 K, m1 = 0.06131	1003.66 ± 0.11	1514.9 ± 1	0.824 ± 0.021
303.15 K, m1 = 0.07119	1004.89 ± 0.11	1515.8 ± 1	0.828 ± 0.021
303.15 K, m1 = 0.08049	1006.04 ± 0.11	1516.6 ± 1	0.831 ± 0.021
303.15 K, m1 = 0.089	1007.06 ± 0.11	1517.5 ± 1	0.835 ± 0.021
303.15 K, m1 = 0.09492	1007.78 ± 0.11	1518 ± 1	0.838 ± 0.021
308.15 K, m1 = 0.03423	998.558 ± 0.11	1521.8 ± 1	0.737 ± 0.021
308.15 K, m1 = 0.04998	1000.57 ± 0.11	1523.2 ± 1	0.743 ± 0.021
308.15 K, m1 = 0.06131	1002.01 ± 0.11	1524 ± 1	0.747 ± 0.021
308.15 K, m1 = 0.07119	1003.23 ± 0.11	1524.8 ± 1	0.751 ± 0.021
308.15 K, m1 = 0.08049	1004.38 ± 0.11	1525.7 ± 1	0.755 ± 0.021
308.15 K, m1 = 0.089	1005.39 ± 0.11	1526.4 ± 1	0.758 ± 0.021
308.15 K, m1 = 0.09492	1006.11 ± 0.11	1526.8 ± 1	0.76 ± 0.021
313.15 K, m1 = 0.03423	996.725 ± 0.11	1531.6 ± 1	0.675 ± 0.021
313.15 K, m1 = 0.04998	998.73 ± 0.11	1532.7 ± 1	0.679 ± 0.021
313.15 K, m1 = 0.06131	1000.15 ± 0.11	1533.5 ± 1	0.683 ± 0.021
313.15 K, m1 = 0.07119	1001.38 ± 0.11	1534.1 ± 1	0.689 ± 0.021
313.15 K, m1 = 0.08049	1002.51 ± 0.11	1534.8 ± 1	0.686 ± 0.021
313.15 K, m1 = 0.089	1003.53 ± 0.11	1535.5 ± 1	0.689 ± 0.021
313.15 K, m1 = 0.09492	1004.24 ± 0.11	1535.8 ± 1	0.691 ± 0.021
